Here are results for 1 molecule from patent US20090275567A1, “2-HETEROCYCLOAMINO-4-IMIDAZOLYLPYRIMIDINES AS AGENTS FOR THE INHIBITION OF CELL PROLIFERATION” (priority 2006, published 2009).

The structures appear in SMILES notation.

As a reminder, the IC50 is the point on the concentration scale where inhibition reaches its midpoint.

The target in the assay is T1, CDK2/Cyclin E (Homo sapiens, UniProt P24941).
T1 construct: made in house; host or cells: Sf21 (Spodoptera frugiperda) insect cells, baculovirus co-infection; the GST-Rb substrate was made in E. coli BL21 (DE3) pLysS
Nature of the assay: in vitro kinase assay (Scintillation Proximity Assay), CDK2/Cyclin E, GST-Rb substrate. The class given is biochemical. The conditions noted are these: CDK2/Cyclin E partially-purified enzyme, 0.2 μM ATP, read-out: CDK2 inhibitory activity IC50. On the procedure:
The compounds were tested in an in vitro kinase assay in 96 well format using Scintillation Proximity Assay (SPA—obtained from Amersham) for measuring incorporation of [γ-33-P]-Adenosine Triphosphate into a test substrate (GST-Retinoblastoma protein; GST-Rb). In each well was placed the compound to be tested (diluted in DMSO and water to correct concentrations) and in control wells either roscovitine as an inhibitor control or DMSO as a positive control. […]
The plates were sealed with Topseal-S plate sealers, left for two hrs then spun at 2500 rpm, 1124×g., for 5 mins. The plates were read on a Topcount for 30 seconds per well. […]
E. coli paste was resuspended in 10 ml/g of NETN buffer (50 mM Tris pH 7.5, 120 mM NaCl, 1 mM EDTA, 0.5% v/v NP-40, 1 mM PMSF, 1 ug/ml leupeptin, 1 ug/ml aprotinin and 1 ug/ml pepstatin) and sonicated for 2×45 seconds per 100 ml homogenate. […] The final product was analysed by Sodium Dodeca Sulfate (SDS) PAGE (Polyacrylamide gel) using 8-16% Tris-Glycine gels (Novex, San Diego, USA).
The open reading frames of CDK2 and Cyclin E were isolated by reverse transcriptase-PCR using HeLa cell and activated T cell mRNA as a template and cloned into the insect expression vector pVL1393 (obtained from Invitrogen 1995 catalogue number: V1392-20). […]

With `CC(=O)N1CCC(Nc2nccc(-c3cnc(C)n3C(C)C)n2)CC1` [Example 29, 1-[4-[[4-(2-Methyl-3-propan-2-yl-imidazol-4-yl)pyrimidin-2-yl]amino]-1-piperidinyl]ethanone], the half-maximal inhibitory concentration (IC50) came to 95 nM.
